According to publication PMC8268887, “Peptide/β-Peptoid Hybrids with Ultrashort PEG-Like Moieties: Effects on Hydrophobicity, Antibacterial Activity and Hemolytic Properties” (International Journal of Molecular Sciences, 2021):
Values after ≈ are worked out from the molar mass of the structure shown. Like-named read-outs stand apart in the source and are kept apart here.

Legend:
[1] = Determination of hemolytic activity; assay type: cell-based; conditions: red blood cell suspension in PBS buffer, human red blood cells at 400 µg/mL, 37 °C
Description: The lysis of human red blood cells was measured almost as previously described, albeit with modifications. In brief, a suspension of freshly drawn human red blood cells (hRBCs) was washed three times with PBS buffer and centrifuged two times for 5 min at 2500 rpm. A two-fold serial dilution of compounds in PBS buffer was prepared. Plates (conical-bottomed 96-well plates) with three replicate wells per dilution, each containing 1% red blood cell suspension, were prepared and dosed with the test compound to achieve a final concentration of 400 μg/mL in a total volume of 100 μL. The plates were incubated (37 °C) for 60 min with mild agitation, and then the cells were pelleted by centrifugation at 1500 rpm for 5 min. The supernatants (50 μL) were then transferred to a fresh 96-well plate, and the concentration of hemoglobin was detected by measuring the OD at 405 nm. The OD of cells incubated with 1% SDS defined 100% hemolysis, while the OD of cells incubated with PBS buffer defined 0% hemolysis. The concentration tested was 400 μg/mL (only average values are stated in Table 5). The percent hemolysis was calculated by using the formula:(3) Hemolysis (%)=100×[Asample−Aneg.control/Apos.control−Aneg.control]

[2] = Hydrophobicity by retention in analytical RP-HPLC (% MeCN at peak elution); assay type: physicochemical; conditions: for % MeCN at Elution, Aeris Peptide: Phenomenex Aeris Peptide XB-C18 column; for % MeCN at Elution, Aeris Peptide / % MeCN at Elution, Luna Omega / % MeCN at Elution, Supelco Discovery: gradient 0→60% B during 15 min; for % MeCN at Elution, Luna: Phenomenex Luna C18(2) column, RP-HPLC gradient 0→60% B during 15 min, relative hydrophobicity; for % MeCN at Elution, Luna Omega: Phenomenex Luna Omega Polar C18 column; for % MeCN at Elution, Supelco Discovery: Supelco Discovery BIO Wide pore C18 column
Description: For each peptide/β-peptoid hybrid oligomer, the retention time in RP-HPLC was measured on four different columns (details shown in Table 2): Phenomenex Luna C18(2) column (recommended for hydrophobic compounds [49]), Phenomenex Luna Omega Polar C18 column (recommended for both very polar and non-polar compounds [50]) as well as Phenomenex Aeris Peptide XB-C18 [51] and Sigma-Aldrich Supelco Discovery BIO Wide pore C18 [52] columns, which both are recommended for analysis of peptides. The retention times of the compounds on each column were used to calculate the acetonitrile concentration at peak elution (denoted merely as % MeCN; Table 1). As expected, the % MeCN for each compound varied somewhat between the four columns.
Starting materials and solvents were acquired from commercial suppliers (Iris Biotech, Markredwitz, Germany; Fluorochem, Hadfield, UK; and Merck, Darmstadt, Germany) and used without further purification. Water used for analytical and preparative high-performance liquid chromatography (HPLC) was filtered through a 0.22-μm capsule filter using an Evoqua LaboStar Pro TWF UV system. Purity and retention time of each peptidomimetic were determined by analytical HPLC by using a Phenomenex Luna Omega Polar C18 column (150 × 4.6 mm; particle size: 3 μm; pore size: 100 Å) on a Shimadzu Prominence and Shimadzu Nexera system using an aqueous acetonitrile (MeCN, VWR, Søborg, Denmark) gradient with 0.1% trifluoroacetic acid (TFA, Iris Biotech, Markredwitz, Germany) added (eluent A: 5:95 MeCN–H2O + 0.1% TFA, eluent B: 95:5 MeCN–H2O + 0.1% TFA); a flow rate of 0.8 mL/min was used. For elution of peptidomimetics, a linear gradient of 0% to 60% B during 15 min was used with UV detection at λ = 220 nm. […] Retention time of each peptidomimetic was also determined by using a Phenomenex Luna C18(2) column (150 × 4.6 mm; particle size: 3 μm; pore size: 100 Å), a Phenomenex Aeris Peptide XB-C18 column (150 × 4.6 mm; particle size: 3.6 μm; pore size: 100 Å), and a Sigma-Aldrich Supelco Discovery BIO Wide pore C18 column (150 × 4.6 mm, particle size: 3 µm; pore size: 300 Å). For each peptidomimetic, the percentage of MeCN at peak elution was calculated from the retention time by using the following formula:(1) %MeCN =0.95 (0.6Rt/15 min)+0.05 (1−0.6Rt/15 min)

[3] = test system: K. pneumoniae ATCC 13883; assay type: cell-based
Description: (§1) MIC values of the peptidomimetics were evaluated by using the modified Hancock lab protocol in non-binding polystyrene microtiter plates. Bacterial suspensions of ~5 × 10^5 CFU/mL in Mueller-Hinton broth (Difco, Sparks, MD, USA) were prepared with Mg^2+ and Ca^2+ concentrations of 4 mg/L each. The compounds were dissolved in H2O and diluted in 0.01% acetic acid, 0.2% BSA (final concentration). Aliquots (11 µL) of test compounds were then transferred to wells containing bacterial suspensions (100 µL). Low-binding sterile tubes and tips (Axygen, Union City, CA, USA) were used for preparation and transfer of the solutions of the compounds. Following incubation for 20 h of the covered plates at 35 °C (±2 °C) with circular shaking at 180 rpm, the MICs were read.

[4] = test system: E. faecalis ATCC 29212; assay type: cell-based; conditions: ATCC 29212, 20 h
Description: as §1

[5] = test system: A. baumannii NMI 3658/17; assay type: cell-based, Acinetobacter baumannii; conditions: NMI 3658/17, 20 h
Description: as §1

[6] = test system: A. baumannii ATCC 19606; assay type: cell-based, Acinetobacter baumannii; conditions: ATCC 19606, 20 h
Description: as §1

[7] = test system: S. aureus ATCC 29213; assay type: cell-based, Staphylococcus aureus; conditions: ATCC 29213, 20 h
Description: as §1

[8] = test system: E. coli ATCC 25922; assay type: cell-based, Escherichia coli; conditions: ATCC 25922, 20 h
Description: as §1

[9] = test system: E. coli NMI 3371/16; assay type: cell-based, Escherichia coli; conditions: NMI 3371/16, 20 h
Description: as §1

[10] = test system: E. coli NMI 3898/15; assay type: cell-based, Escherichia coli; conditions: NMI 3898/15, 20 h
Description: as §1

Row | Compound | % MeCN at Elution, Aeris Peptide [2] [% MeCN] | % MeCN at Elution, Luna [2] [% MeCN] | % MeCN at Elution, Luna Omega [2] [% MeCN] | % MeCN at Elution, Supelco Discovery [2] [% MeCN] | MIC, KP [3] | MIC, EF [4] [µg/mL] | MIC, A. baumannii NMI 3658/17 [5] [µg/mL] | MIC, AB [6] [µg/mL] | MIC, SA [7] [µg/mL] | MIC, EC [8] [µg/mL] | MIC, E. coli NMI 3371/16 [9] [µg/mL] | MIC, E. coli NMI 3898/15 [10] [µg/mL] | MIC, KP ([3]; ATCC 13883, 20 h) [µg/mL] | MIC against A. baumannii [6] [µM] | hemolysis at 60 min [1] [%]
1 | NCCCC[C@H](NC(=O)CCN(Cc1ccc(F)cc1)C(=O)[C@H](CCCCN)NC(=O)CCN(Cc1ccc(F)cc1)C(=O)[C@H](CCCCN)NC(=O)CCN(Cc1ccc(F)cc1)C(=O)[C@H](CCCCN)NC(=O)CCN(Cc1ccc(F)cc1)C(=O)[C@H](CCCCN)NC(=O)CCN(Cc1ccc(F)cc1)C(=O)[C@@H](N)CCCCN)C(=O)N(CCC(N)=O)Cc1ccc(F)cc1 [Compound 1, H-[Lys-βNPhe(4-F)]6-NH2] | 39.4 | 41.6 | 41.9 | 41.7 | 64–>64 | >64 | 4 (≈ 2.15 µM) | 8 to 16 | 16 (≈ 8.6 µM) | 4 to 8 | 8 (≈ 4.3 µM) | 8 (≈ 4.3 µM) |  |  | 6.6
2 | NCCCC[C@H](NC(=O)CCN(Cc1ccc(F)cc1)C(=O)[C@H](CCCCN)NC(=O)CCN(Cc1ccc(F)cc1)C(=O)[C@H](CCCCN)NC(=O)CCOCCOCCOCCOCCNC(=O)CCN(Cc1ccc(F)cc1)C(=O)[C@H](CCCCN)NC(=O)CCN(Cc1ccc(F)cc1)C(=O)[C@H](CCCCN)NC(=O)CCN(Cc1ccc(F)cc1)C(=O)[C@@H](N)CCCCN)C(=O)N(CCC(N)=O)Cc1ccc(F)cc1 [Compound 9, H-[X]3-sPEG4-[X]3-NH2] | 39.8 | 41.8 | 42.3 | 42.0 |  | >64 | 4 to 8 | 4 to 8 | >64 | 4 (≈ 1.9 µM) | 4 to 8 | 16 (≈ 7.59 µM) | >64 |  | 7.1
3 | NCCCC[C@H](NC(=O)CCN(Cc1ccc(F)cc1)C(=O)[C@H](CCCCN)NC(=O)CCN(Cc1ccc(F)cc1)C(=O)[C@H](CCCCN)NC(=O)CCOCCOCCOCCOCCOCCOCCNC(=O)CCN(Cc1ccc(F)cc1)C(=O)[C@H](CCCCN)NC(=O)CCN(Cc1ccc(F)cc1)C(=O)[C@H](CCCCN)NC(=O)CCN(Cc1ccc(F)cc1)C(=O)[C@@H](N)CCCCN)C(=O)N(CCC(N)=O)Cc1ccc(F)cc1 [Compound 10, H-[X]3-sPEG6-[X]3-NH2] | 40.3 | 42.3 | 42.8 | 42.5 |  | >64 | 4 (≈ 1.82 µM) | 4 (≈ 1.82 µM) | >64 | 4 to 8 | 4 to 16 | 8 to 32 | 64 (≈ 29.1 µM) | 1.3 (≈ 2.86 µg/mL) | 6.3

More lines, main results first:

Row | % MeCN at Elution, Aeris Peptide [2] [% MeCN] | % MeCN at Elution, Luna [2] [% MeCN] | % MeCN at Elution, Luna Omega [2] [% MeCN] | % MeCN at Elution, Supelco Discovery [2] [% MeCN] | MIC, KP [3] | MIC, EF [4] [µg/mL] | MIC, A. baumannii NMI 3658/17 [5] [µg/mL] | MIC, AB [6] [µg/mL] | MIC, SA [7] [µg/mL] | MIC, EC [8] [µg/mL] | MIC, E. coli NMI 3371/16 [9] [µg/mL] | MIC, E. coli NMI 3898/15 [10] [µg/mL] | MIC, KP ([3]; ATCC 13883, 20 h) [µg/mL] | MIC against A. baumannii [6] [µM] | Compound | hemolysis at 60 min [1] [%]
4 | 39.4 | 41.4 | 41.8 | 41.6 |  |  | 4 (≈ 1.99 µM) | 4 (≈ 1.99 µM) |  | 4 (≈ 1.99 µM) | 4 (≈ 1.99 µM) | 8 (≈ 3.99 µM) | >64 |  | NCCCC[C@H](NC(=O)CCN(Cc1ccc(F)cc1)C(=O)[C@H](CCCCN)NC(=O)CCN(Cc1ccc(F)cc1)C(=O)[C@H](CCCCN)NC(=O)COCCOCCNC(=O)CCN(Cc1ccc(F)cc1)C(=O)[C@H](CCCCN)NC(=O)CCN(Cc1ccc(F)cc1)C(=O)[C@H](CCCCN)NC(=O)CCN(Cc1ccc(F)cc1)C(=O)[C@@H](N)CCCCN)C(=O)N(CCC(N)=O)Cc1ccc(F)cc1 [Compound 7, H-[X]3-sPEG2-[X]3-NH2] | 6.1
5 | 38.7 | 40.8 | 41.4 | 40.8 |  | >64 | 8 (≈ 3.7 µM) | 4 to 8 | >64 | 8 (≈ 3.7 µM) | 8 (≈ 3.7 µM) | 16 (≈ 7.39 µM) | >64 |  | NCCCC[C@H](NC(=O)CCN(Cc1ccc(F)cc1)C(=O)[C@H](CCCCN)NC(=O)CCN(Cc1ccc(F)cc1)C(=O)[C@H](CCCCN)NC(=O)COCCN)C(=O)N(CCC(=O)NCCOCC(=O)N[C@@H](CCCCN)C(=O)N(CCC(=O)N[C@@H](CCCCN)C(=O)N(CCC(=O)N[C@@H](CCCCN)C(=O)N(CCC(=O)NCCOCC(N)=O)Cc1ccc(F)cc1)Cc1ccc(F)cc1)Cc1ccc(F)cc1)Cc1ccc(F)cc1 [Compound 11, H-sPEG1-[X]3-sPEG1-[X]3-sPEG1-NH2] | 4.6
6 | 39.2 | 41.3 | 42.0 | 41.3 |  | >64 | 16 (≈ 6.97 µM) | 8 to 16 | >64 | 8 to 16 | 8 (≈ 3.48 µM) | 16 (≈ 6.97 µM) | >64 |  | NCCCC[C@H](NC(=O)CCN(Cc1ccc(F)cc1)C(=O)[C@H](CCCCN)NC(=O)CCN(Cc1ccc(F)cc1)C(=O)[C@H](CCCCN)NC(=O)COCCOCCN)C(=O)N(CCC(=O)NCCOCCOCC(=O)N[C@@H](CCCCN)C(=O)N(CCC(=O)N[C@@H](CCCCN)C(=O)N(CCC(=O)N[C@@H](CCCCN)C(=O)N(CCC(=O)NCCOCCOCC(N)=O)Cc1ccc(F)cc1)Cc1ccc(F)cc1)Cc1ccc(F)cc1)Cc1ccc(F)cc1 [Compound 12, H-sPEG2-[X]3-sPEG2-[X]3-sPEG2-NH2] | 8.1
